Laboratory results as given in PubChem BioAssay AID1963427 (Molecular Pharmacology Branch, DTP, NCI, 2024).
Values joined by “and” are separate entries in the source; they are usually repeats but may differ in a detail not shown here. Equal entries are not always repeated.

Test system: 317291-083-R-J1-PDC complex spheroid growth
Assay: Anticancer human tumor 317291-083-R-J1-PDC patient-derived soft tissue sarcoma cell line growth inhibition [Asc]
Conditions: for viability, T/C: stronger effect = lower value; active = viability on the fitted dose curve at most 10% of control; inactive = the rest
In short: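 Complex spheroids combining tumor cells with HUVEC endothelial cells and human MSCs, at 37 degrees C, 5% CO2; agents tested alone or combined, half-log dilutions from at or near clinical Cmax, or 10 microM if Cmax unknown.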

[1] = curve of first compound, second compound 0.0316 µM
[2] = curve of first compound, second compound 0.1 µM
[3] = curve of first compound, second compound 0.316 µM
[4] = curve of first compound, second compound 1 µM
[5] = second compound 0.0316 µM, first compound 0.000949 µM
[6] = second compound 0.0316 µM, first compound 0.003 µM
[7] = second compound 0.0316 µM, first compound 0.00949 µM
[8] = second compound 0.0316 µM, first compound 0.03 µM
[9] = second compound 0.0316 µM, first compound 0.0949 µM
[10] = second compound 0.0316 µM, first compound 0.3 µM
[11] = second compound 0.1 µM, first compound 0.000949 µM
[12] = second compound 0.1 µM, first compound 0.003 µM
[13] = second compound 0.1 µM, first compound 0.00949 µM
[14] = second compound 0.1 µM, first compound 0.03 µM
[15] = second compound 0.1 µM, first compound 0.0949 µM
[16] = second compound 0.1 µM, first compound 0.3 µM
[17] = second compound 0.316 µM, first compound 0.000949 µM
[18] = second compound 0.316 µM, first compound 0.003 µM
[19] = second compound 0.316 µM, first compound 0.00949 µM
[20] = second compound 0.316 µM, first compound 0.03 µM
[21] = second compound 0.316 µM, first compound 0.0949 µM
[22] = second compound 0.316 µM, first compound 0.3 µM
[23] = second compound 1 µM, first compound 0.000949 µM
[24] = second compound 1 µM, first compound 0.003 µM
[25] = second compound 1 µM, first compound 0.00949 µM
[26] = second compound 1 µM, first compound 0.03 µM
[27] = second compound 1 µM, first compound 0.0949 µM
[28] = second compound 1 µM, first compound 0.3 µM
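Also: compound exposure lasted seven days after spheroids formed for three days.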
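For viability, T/C in this document: 100% = DMSO vehicle control wells.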

NC(=O)C(=Cn1cnc(-c2cc(C(F)(F)F)cc(C(F)(F)F)c2)n1)c1cncnc1 + CNC(C)C(=O)NC1CN(S(=O)(=O)c2cccc(S(=O)(=O)N3CCC4CCC(C(=O)NC(c5ccccc5)c5ccccc5)N4C(=O)C(NC(=O)C(C)NC)C3)c2)CCC2CCC(C(=O)NC(c3ccccc3)c3ccccc3)N2C1=O
active: viability, T/C (second compound 0.00316 µM, first compound 0.0949 µM) 5.77% | viability, T/C (second compound 0.00316 µM, first compound 0.3 µM) 2.39% | viability, T/C (second compound 0.01 µM, first compound 0.0949 µM) 4.51% | viability, T/C (second compound 0.01 µM, first compound 0.3 µM) 2.62% | viability, T/C [9] 4.33% | viability, T/C [10] 1.8% | viability, T/C [15] 3.12% | viability, T/C [16] 1.09% | viability, T/C [21] 1.31% | viability, T/C [22] 2.22% | viability, T/C [27] 2.47% | viability, T/C [28] 1.44%
0.0124 µM: IC50 [3]
0.0175 µM: IC50 (curve of first compound, second compound 0.01 µM)
0.0104 µM: IC50 (curve of first compound, second compound 0.00316 µM)
0.0206 µM: IC50 [1]
0.00813 µM: IC50 [2]
inactive: viability, T/C (second compound 0.00316 µM, first compound 0.000949 µM) 75.5% | viability, T/C (second compound 0.00316 µM, first compound 0.003 µM) 72.6% | viability, T/C (second compound 0.00316 µM, first compound 0.00949 µM) 47.7% | viability, T/C (second compound 0.00316 µM, first compound 0.03 µM) 32.1% | viability, T/C (second compound 0.01 µM, first compound 0.000949 µM) 105% | viability, T/C (second compound 0.01 µM, first compound 0.003 µM) 96.1% | viability, T/C (second compound 0.01 µM, first compound 0.00949 µM) 74.5% | viability, T/C (second compound 0.01 µM, first compound 0.03 µM) 29.3% | viability, T/C [5] 101% | viability, T/C [6] 92.5% | viability, T/C [7] 75.6% | viability, T/C [8] 39.5% | viability, T/C [11] 74.4% | viability, T/C [12] 73% | viability, T/C [13] 45.3% | viability, T/C [14] 16.6% | viability, T/C [17] 63.2% | viability, T/C [18] 68.2% | viability, T/C [19] 60.1% | viability, T/C [20] 16.1% | viability, T/C [23] 67.3% | viability, T/C [24] 38.9% | viability, T/C [25] 34.8% | viability, T/C [26] 12.6%
0.00222 µM: IC50 [4]

NC(=O)C(=Cn1cnc(-c2cc(C(F)(F)F)cc(C(F)(F)F)c2)n1)c1cncnc1 + Cc1c(S(C)(=O)=O)c(-c2cc(F)cc(N3CCN(c4ccc(NS(=O)(=O)c5ccc(NC(CCN6CCC(C(=O)OCCCP(=O)(O)O)CC6)CSc6ccccc6)c(S(=O)(=O)C(F)(F)F)c5)cc4)CC3)c2)c(-c2ccc(Cl)cc2)n1C(C)C
0.0195 µM: IC50 [1]
0.0155 µM: IC50 [3]
0.0144 µM: IC50 (curve of first compound, second compound 3.16 µM)
0.0242 µM: IC50 (curve of first compound, second compound 10 µM)
0.0178 µM: IC50 [4]
active: viability, T/C [10] 1.57% | viability, T/C [16] 0.74% | viability, T/C [21] 1.71% | viability, T/C [22] 0.54% | viability, T/C [27] 5.89% | viability, T/C [28] 0.53% | viability, T/C (second compound 3.16 µM, first compound 0.0949 µM) 2.57% | viability, T/C (second compound 3.16 µM, first compound 0.3 µM) 0.29% | viability, T/C (second compound 10 µM, first compound 0.0949 µM) 1.64% | viability, T/C (second compound 10 µM, first compound 0.3 µM) 0.33%
inactive: viability, T/C [5] 105% | viability, T/C [6] 73.8% | viability, T/C [7] 71.2% | viability, T/C [8] 47.7% | viability, T/C [9] 3.73% | viability, T/C [11] 98.8% | viability, T/C [12] 94.7% | viability, T/C [13] 72.6% | viability, T/C [14] 53.8% | viability, T/C [15] 4.66% | viability, T/C [17] 99.6% | viability, T/C [18] 114% | viability, T/C [19] 59.6% | viability, T/C [20] 31.9% | viability, T/C [23] 89.3% | viability, T/C [24] 88.8% | viability, T/C [25] 69.8% | viability, T/C [26] 33.5% | viability, T/C (second compound 3.16 µM, first compound 0.000949 µM) 74.7% | viability, T/C (second compound 3.16 µM, first compound 0.003 µM) 76.1% | viability, T/C (second compound 3.16 µM, first compound 0.00949 µM) 59.4% | viability, T/C (second compound 3.16 µM, first compound 0.03 µM) 31.6% | viability, T/C (second compound 10 µM, first compound 0.000949 µM) 105% | viability, T/C (second compound 10 µM, first compound 0.003 µM) 118% | viability, T/C (second compound 10 µM, first compound 0.00949 µM) 84.4% | viability, T/C (second compound 10 µM, first compound 0.03 µM) 44.5%
0.0263 µM: IC50 [2]

Cc1nc(N2CCC3(CC2)COC(C)C3N)c(CO)nc1Sc1ccnc(N)c1Cl (stereo not drawn)
inactive: viability, T/C (compound 0.00949 µM) 108% and 113% and 102% | viability, T/C (compound 0.03 µM) 83.1% and 90.6% and 95.5% | viability, T/C (compound 0.0949 µM) 79.3% and 103% and 99.2% | viability, T/C (compound 0.3 µM) 73.6% and 89.4% and 77.2% | viability, T/C (compound 0.949 µM) 59.2% and 66.4% and 64.5% | viability, T/C (compound 3 µM) 43.2% and 58.9% and 51%
2 µM and > 3 µM: IC50 (curve of compound)

C#Cc1c(F)ccc2cc(O)cc(-c3ncc4c(N5CC6CCC(C5)N6)nc(OCC56CCCN5CC(F)C6)nc4c3F)c12 (stereo not drawn)
inactive: viability, T/C (compound 0.0316 µM) 86.9% and 91% and 105% | viability, T/C (compound 0.1 µM) 84.9% and 99.4% and 85.2% | viability, T/C (compound 0.316 µM) 87.6% and 108% and 105% | viability, T/C (compound 1 µM) 97.5% and 103% and 102% | viability, T/C (compound 3.16 µM) 95.8% and 90.8% and 94.6% | viability, T/C (compound 10 µM) 56.1% and 72.7% and 85.2%
> 10 µM: IC50 (curve of compound)
